# Results from PubChem BioAssay AID1919009 (Molecular Pharmacology Branch, DTP, NCI, 2023).
# Where “and” joins values, the source holds several entries; their conditions need not be identical. Equal values may be shown once.
# Tested on: K24384-001-R-PDC complex spheroid growth
# Test: Anticancer human tumor K24384-001-R-PDC patient-derived pancreatic adenocarcinoma cell line growth inhibition [AhR]
# Conditions: for viability, T/C: stronger effect = lower value
# In short: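 Spheroids combined tumor cells with HUVEC endothelial cells and human MSCs as stroma. AhR antagonists were paired with standard or investigational drugs, each dosed in half-log steps down from near clinical Cmax, or from 10 microM where Cmax was unknown.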
# [1] = curve of first compound, second compound 0.1 µM
# [2] = curve of first compound, second compound 0.316 µM
# [3] = curve of first compound, second compound 1 µM
# [4] = curve of first compound, second compound 3.16 µM
# [5] = curve of first compound, second compound 10 µM
# [6] = second compound 0.1 µM, first compound 0.00316 µM
# [7] = second compound 0.1 µM, first compound 0.01 µM
# [8] = second compound 0.1 µM, first compound 0.0316 µM
# [9] = second compound 0.1 µM, first compound 0.1 µM
# [10] = second compound 0.1 µM, first compound 0.316 µM
# [11] = second compound 0.1 µM, first compound 1 µM
# [12] = second compound 0.316 µM, first compound 0.00316 µM
# [13] = second compound 0.316 µM, first compound 0.01 µM
# [14] = second compound 0.316 µM, first compound 0.0316 µM
# [15] = second compound 0.316 µM, first compound 0.1 µM
# [16] = second compound 0.316 µM, first compound 0.316 µM
# [17] = second compound 0.316 µM, first compound 1 µM
# [18] = second compound 1 µM, first compound 0.00316 µM
# [19] = second compound 1 µM, first compound 0.01 µM
# [20] = second compound 1 µM, first compound 0.0316 µM
# [21] = second compound 1 µM, first compound 0.1 µM
# [22] = second compound 1 µM, first compound 0.316 µM
# [23] = second compound 1 µM, first compound 1 µM
# [24] = second compound 3.16 µM, first compound 0.00316 µM
# [25] = second compound 3.16 µM, first compound 0.01 µM
# [26] = second compound 3.16 µM, first compound 0.0316 µM
# [27] = second compound 3.16 µM, first compound 0.1 µM
# [28] = second compound 3.16 µM, first compound 0.316 µM
# [29] = second compound 3.16 µM, first compound 1 µM
# [30] = second compound 10 µM, first compound 0.00316 µM
# [31] = second compound 10 µM, first compound 0.01 µM
# [32] = second compound 10 µM, first compound 0.0316 µM
# [33] = second compound 10 µM, first compound 0.1 µM
# [34] = second compound 10 µM, first compound 0.316 µM
# [35] = second compound 10 µM, first compound 1 µM
# [36] = second compound 0.1 µM, first compound 3.16 µM
# [37] = second compound 0.1 µM, first compound 10 µM
# [38] = second compound 0.316 µM, first compound 3.16 µM
# [39] = second compound 0.316 µM, first compound 10 µM
# [40] = second compound 1 µM, first compound 3.16 µM
# [41] = second compound 1 µM, first compound 10 µM
# [42] = second compound 3.16 µM, first compound 3.16 µM
# [43] = second compound 3.16 µM, first compound 10 µM
# [44] = second compound 10 µM, first compound 3.16 µM
# [45] = second compound 10 µM, first compound 10 µM
# 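Wherever viability, T/C is given: percent of DMSO vehicle-treated spheroid viability set as 100%.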
Compound,IC50 [1] [nM],IC50 [2] [nM],IC50 [3] [nM],IC50 [4] [nM],IC50 [5] [nM],"viability, T/C [8] [%]","viability, T/C [9] [%]","viability, T/C [10] [%]","viability, T/C [11] [%]","viability, T/C [14] [%]","viability, T/C [15] [%]","viability, T/C [16] [%]","viability, T/C [17] [%]","viability, T/C [20] [%]","viability, T/C [21] [%]","viability, T/C [22] [%]","viability, T/C [23] [%]","viability, T/C [26] [%]","viability, T/C [27] [%]","viability, T/C [28] [%]",also measured
Nc1ncn(C2CC(O)C(CO)O2)c(=O)n1 (centres undefined) + Cc1ccccc1N=Nc1ccc(NC(=O)c2ccnn2C)c(C)c1,> 1000,> 1000,> 1000,> 1000,> 1000,90.2,79.4,87.5,68.8,100,103,80.6,71.4,90,89.5,73.2,66.9,83.5,68.9,64.9,"viability, T/C [6]: 108%; viability, T/C [7]: 114%; viability, T/C [12]: 102%; viability, T/C [13]: 112%; viability, T/C [18]: 103%; viability, T/C [19]: 99.2%; viability, T/C [24]: 89.4%; viability, T/C [25]: 85.7%; viability, T/C [29]: 57.5%; viability, T/C [30]: 93.6%; viability, T/C [31]: 95.1%; viability, T/C [32]: 97.7%; viability, T/C [33]: 79%; viability, T/C [34]: 66.7%; viability, T/C [35]: 58.1%"
O=C(C=Cc1cccc(S(=O)(=O)Nc2ccccc2)c1)NO + CC(CO)NC(=O)c1cc(-c2ccc(Cl)cc2)nn(-c2cnn(C)c2)c1=O,1580,2210,2000,1600,1800,97.1,126,126,65.4,119,130,122,96.1,123,127,137,81,107,103,136,"viability, T/C [36]: 28.5%; viability, T/C [37]: 2.04%; viability, T/C [38]: 29.3%; viability, T/C [39]: 1.86%; viability, T/C [40]: 30.5%; viability, T/C [41]: 1.91%; viability, T/C [29]: 73.3%; viability, T/C [42]: 20.5%; viability, T/C [43]: 1%; viability, T/C [32]: 107%; viability, T/C [33]: 117%; viability, T/C [34]: 98.9%; viability, T/C [35]: 73%; viability, T/C [44]: 28.4%; viability, T/C [45]: 0.81%"
CC1(C)CCC(CN2CCN(c3ccc(C(=O)NS(=O)(=O)c4ccc(NCC5CCOCC5)c([N+](=O)[O-])c4)c(Oc4cnc5[nH]ccc5c4)c3)CC2)=C(c2ccc(Cl)cc2)C1 + CC(CO)NC(=O)c1cc(-c2ccc(Cl)cc2)nn(-c2cnn(C)c2)c1=O,> 10000,> 10000,> 10000,9000,> 10000,91.4,115,94.4,88.3,117,124,123,101,123,139,123,115,97.3,112,122,"viability, T/C [36]: 87.9%; viability, T/C [37]: 50.5%; viability, T/C [38]: 106%; viability, T/C [39]: 49.9%; viability, T/C [40]: 110%; viability, T/C [41]: 51.7%; viability, T/C [29]: 110%; viability, T/C [42]: 77.9%; viability, T/C [43]: 47.2%; viability, T/C [32]: 101%; viability, T/C [33]: 114%; viability, T/C [34]: 113%; viability, T/C [35]: 110%; viability, T/C [44]: 90.2%; viability, T/C [45]: 53%"
CC1COCCN1c1cc(-c2ccnn2C)c2ccnc(-c3ccn[nH]3)c2n1 (centres undefined) + Cc1cncc(-c2nc(NCCc3c[nH]c4ccccc34)c3ncn(C(C)C)c3n2)c1,73.9,93.3,90.5,55.2,< 3.16,65.3,46.1,25.7,22.2,89.1,46.4,31.8,20.5,87.3,46.9,24.8,24.6,69,30.1,27.3,"viability, T/C [6]: 88.3%; viability, T/C [7]: 81.3%; viability, T/C [12]: 95.6%; viability, T/C [13]: 95.8%; viability, T/C [18]: 94.5%; viability, T/C [19]: 104%; viability, T/C [24]: 73%; viability, T/C [25]: 88.3%; viability, T/C [29]: 27.7%; viability, T/C [30]: 7.24%; viability, T/C [31]: 7.46%; viability, T/C [32]: 8.32%; viability, T/C [33]: 5.4%; viability, T/C [34]: 4.59%; viability, T/C [35]: 6.27%"
O=C(c1cc(Cc2n[nH]c(=O)c3ccccc23)ccc1F)N1CCN(C(=O)C2CC2)CC1,–,–,–,–,–,–,–,–,–,–,–,–,–,–,–,–,–,–,–,–,"viability, T/C (compound 0.0316 µM): 104% and 103% and 116%; viability, T/C (compound 0.1 µM): 132% and 100% and 105%; viability, T/C (compound 0.316 µM): 105% and 95.4% and 115%; viability, T/C (compound 1 µM): 95.4% and 94.5% and 90.4%; viability, T/C (compound 3.16 µM): 88.2% and 96.2% and 90.5%; viability, T/C (compound 10 µM): 82.8% and 62.4% and 76%; IC50 (curve of compound): > 10000 nM"
COc1cccc2c1C(=O)c1c(O)c3c(c(O)c1C2=O)CC(O)(C(=O)CO)CC3OC1CC(N)C(O)C(C)O1 (centres undefined),–,–,–,–,–,–,–,–,–,–,–,–,–,–,–,–,–,–,–,–,"viability, T/C (compound 0.0316 µM): 55.9% and 53.8% and 60.3%; viability, T/C (compound 0.1 µM): 42.6% and 43.3% and 55.6%; viability, T/C (compound 0.316 µM): 27.5% and 27% and 27.3%; viability, T/C (compound 1 µM): 7.51% and 8.21% and 8.1%; viability, T/C (compound 3.16 µM): 2.73% and 2.56% and 3.17%; viability, T/C (compound 10 µM): 7.73% and 8.61% and 11.3%; IC50 (curve of compound): 55.5 nM and 48.3 nM and 127 nM"
